8 compounds from US11040035B2, “3-oxo-2,6-diphenyl-2,3-dihydropyridazine-4-carboxamides” (BAYER PHARMA AKTIENGESELLSCHAFT, priority 2016, dated 2021) can be followed below.

Like-named read-outs stand apart in the source and are kept apart here.

The test system of test [1] is TNFa production by LPS-stimulated human monocytes. The experiment in a line: In vitro assay 4: rescue of TNFa production from human primary monocytes. To be noted: Homo sapiens, Monocyte, 18 h, human monocytes, 10 ng/mL LPS + 200 μM KA, 18 hours; highest percent TNFa rescue relative to highest rescue with GNF-351; one value per donor; read-out: Individual Donors % rescue TNFa normalised to ref cmpd. The format is cell-based. On the procedure: In Vitro Assay 4: Rescue of TNFa Production from Human Primary Monocytes
The ability of the substances to enhance immune cell activity was determined. The substances were tested for their capacity to reverse KA-induced inhibition of TNFa production by LPS-stimulated human monocytes. Human monocytes were purified by negative selection from donor PBMCs using Miltenyi beads and seeded at 2×10^5 cells/well in complete growth medium (RPMI 1640, 10% FCS). Monocytes were incubated with 10 ng/mL LPS (0127:68, #L4516, Sigma) and 200 μM KA (#3375, Sigma) and substances were added at concentrations of 1 μM, 0.3 μM and 0.1 μM and cultured for 18 hours. LPS alone served as the positive control. TNFa production in the supernatant was measured by Meso Scale Discovery immunassay and the ability of the substances to rescue TNFa production was calculated as a percentage of LPS stimulation and KA-induced inhibition and normalized to the donor-specific response with the reference AHR antagonist compound GNF-351 (Smith et al., J Pharmacol Exp Ther, 2011, 338(1):318-27).

Test [2] concerns AHR-regulated gene CYP1A1. The experiment in a line: In vitro assay 3: AHR-regulated CYP1A1 expression in human cell line (U937, qPCR). The conditions noted are these: Homo sapiens, U-937, 6 h, read-out: Assay 3: Hum CYP1A1 Antagonism IC50 [M], U937 cells, 200 μM KA, 6 hours, qPCR. A general note: Quantitative PCR measures a nucleic acid by following its amplification.
Test [3] has as its target T1, AHR (Homo sapiens, UniProt P35869).
T1 sequence (P35869 11-848): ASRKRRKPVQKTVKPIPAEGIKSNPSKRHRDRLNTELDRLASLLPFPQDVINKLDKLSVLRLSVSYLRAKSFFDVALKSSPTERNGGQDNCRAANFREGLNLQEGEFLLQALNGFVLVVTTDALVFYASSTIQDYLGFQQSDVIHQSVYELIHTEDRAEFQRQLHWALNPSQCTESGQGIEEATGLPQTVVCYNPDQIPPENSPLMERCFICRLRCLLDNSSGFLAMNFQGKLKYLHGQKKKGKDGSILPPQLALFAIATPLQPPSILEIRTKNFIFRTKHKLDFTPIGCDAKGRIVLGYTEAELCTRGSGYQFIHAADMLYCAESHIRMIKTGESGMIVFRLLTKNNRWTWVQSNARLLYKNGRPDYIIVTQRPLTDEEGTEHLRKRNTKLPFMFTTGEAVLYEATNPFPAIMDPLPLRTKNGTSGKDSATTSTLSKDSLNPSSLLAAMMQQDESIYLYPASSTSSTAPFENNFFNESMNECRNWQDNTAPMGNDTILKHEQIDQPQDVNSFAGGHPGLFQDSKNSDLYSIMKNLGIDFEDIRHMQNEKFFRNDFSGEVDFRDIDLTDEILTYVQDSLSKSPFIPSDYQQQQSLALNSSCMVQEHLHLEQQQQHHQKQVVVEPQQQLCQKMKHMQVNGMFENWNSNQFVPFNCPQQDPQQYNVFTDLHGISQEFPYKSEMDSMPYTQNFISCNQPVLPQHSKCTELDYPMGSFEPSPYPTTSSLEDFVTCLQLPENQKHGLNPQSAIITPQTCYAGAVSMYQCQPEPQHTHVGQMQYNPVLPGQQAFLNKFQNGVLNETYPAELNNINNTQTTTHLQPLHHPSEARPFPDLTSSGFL
The experiment in a line: In vitro assay 1: antagonism in human cell line (transactivation assay, kynurenic acid prestimulated). To be noted: Assay 1: AHR-luc Hum Antagonism IC50 [M], 150 μM kynurenic acid, 20 hours, firefly luciferase.

The target of test [4] is T1, AHR. The experiment in a line: In vitro assay 2: agonism in human cell line (transactivation assay).
Test [5] deals with T1, AHR. To be noted: 20 h.
For the next test, the system named is CT26 tumor cells. The experiment in a line: In vivo assay: efficacy of example compound and PD-1-L1 axis antagonist in CT26 tumor model. To be noted: female Balb/c mice, CT26 s.c.; example 23 30 mg/kg BID p.o.; aPD-L1 (TPP-3911) 10 mg/kg q3d i.p.; treatment from day 5.
[6] abbreviates: Assay 2: AHR-luc Hum Agonism IC50 [M], no kynurenic acid, 20 hours, firefly luciferase.
Where [7] appears, read: read-out: Assay 2: AHR-luc Hum Agonism IC50, no kynurenic acid, 20 hours, firefly luciferase.

Excerpt for CT26 tumor cells: In Vivo Assay: Efficacy of Compositions Comprising an Example Compound and a PD-1-L1 Axis Antagonist
Animals were ordered from Charles River Sulzfeld, Germany and assigned to the study at the age of 8 weeks. Animal husbandry, feeding and health conditions are according to animal welfare guidelines. CT26 cells (aquired from ATCC) were cultivated with RPMI 1640 with 10% FCS and splitted at least 3 times before inoculation. Female Balb/c mice were inoculated with 500.000 CT26 tumor cells in 50% medium/50% matrigel subcutaneously in the flank. After 4 days the animals were randomized and therapeutic treatment started on day 5.
The anti-PDL1 antibody is a chimera of the variable domain of atezolizumab with murine IgG1 CH1, 2 and 3 domains.
Tumor size was measured using calipers determining length (a) and width (b). Tumor volume was calculated according to:
Significance of monotherapies and combination treatment was calculated versus control group as determined by 2-Way ANOVA analysis.
After 4 days the animals were randomized and therapeutic treatment started on day 5. […] Significance of monotherapies and combination treatment was calculated vs. control group as determined by 2-Way ANOVA analysis.

Take `O=C(NCC1(O)CCCCC1)c1cc(-c2ccc(Cl)cc2)nn(-c2cccc(F)c2)c1=O` [Example 129, 6-(4-Chlorophenyl)-2-(3-fluorophenyl)-N-[(1-hydroxycyclohexyl)methyl]-3-oxo-2,3-dihydropyridazine-4-carboxamide]: the Emax in test [1] was 30%. Moreover, the half-inhibitory concentration (IC50) in test [2] was 6e-07 M; against AHR [3], 4.52e-07 M; on AHR [4] (setting [6]), above 2e-05 M.
On to `Cc1ccc(-c2cc(C(=O)NCC(O)C(F)(F)F)c(=O)n(-c3cc(F)cc(F)c3)n2)cc1` (single isomer, unassigned) [Example 54, 2-(3,5-Difluorophenyl)-6-(4-methylphenyl)-3-oxo-N-(3,3,3-trifluoro-2-hydroxypropyl)-2,3-dihydropyridazine-4-carboxamide], for which the concentration for half-maximal inhibition (IC50) against AHR [3] was 4.07e-08 M; against AHR [5] it was above 20000 nM.
Turning to `CC(C)[C@@H](CO)NC(=O)c1cc(-c2ccc(Cl)c(Cl)c2)nn(-c2cccc(F)c2)c1=O` [Example 301, 6-(3,4-Dichlorophenyl)-2-(3-fluorophenyl)-N-[(2S)-1-hydroxy-3-methylbutan-2-yl]-3-oxo-2,3-dihydropyridazine-4-carboxamide], in test [1], the Emax is 112%. The values for the IC50 (in test [2]; on AHR [3]; at AHR [4] (setting [6])) were 8.1e-08 M, 2.73e-08 M and above 2e-05 M, respectively.
Turning to `O=C(NC(CO)C(F)(F)F)c1cc(-c2ccc(Cl)cc2)nn(-c2cccc(F)c2)c1=O` (single isomer, unassigned; (+)) [Example 99, (+)-6-(4-Chlorophenyl)-2-(3-fluorophenyl)-3-oxo-N-(1,1,1-trifluoro-3-hydroxypropan-2-yl)-2,3-dihydropyridazine-4-carboxamide], in test [1], the Emax stood at 101%. Besides, the IC50 in test [2] was 3.77e-09 M; on AHR [3], 1.04e-08 M; at AHR [4] (setting [7]) it was above 2e-05 M.
Taken in the same sequence, the figures for `CC(C)(O)C(NC(=O)c1cc(-c2ccc(Cl)cc2)nn(-c2cccc(F)c2)c1=O)C(F)(F)F` (single isomer, unassigned) [Example 279] were 53%, 2.89e-09 M, 6.07e-09 M and above 2e-05 M.
Consider `CC[C@@H](CO)NC(=O)c1cc(-c2ccc(Cl)c(F)c2)nn(-c2cccc(F)c2)c1=O` [Example 288, 6-(4-Chloro-3-fluorophenyl)-2-(3-fluorophenyl)-N-[(2S)-1-hydroxybutan-2-yl]-3-oxo-2,3-dihydropyridazine-4-carboxamide], for which, in test [1], the Emax was 82%. Further, the results for the half-inhibitory concentration (IC50) (in test [2]; against AHR [3]; on AHR [4] (setting [6])) were 8.05e-08 M, 3.97e-08 M and above 2e-05 M, respectively.
`C[C@@H](CO)NC(=O)c1cc(-c2ccc(Cl)cc2)nn(-c2cccc(F)c2)c1=O` [Example 23, 6-(4-Chlorophenyl)-2-(3-fluorophenyl)-N-[(2S)-1-hydroxypropan-2-yl]-3-oxo-2,3-dihydropyridazine-4-carboxamide]: in the test on CT26 tumor cells, the “T/C, ratio of tumor size under treatment versus tumor size in the control group” value was determined as 0.75. The IC50 in test [2] is 7.07e-08 M; against AHR [3] it was 3.99e-08 M; on AHR [4] (setting [6]) it was above 2e-05 M.
Turning to `C[C@@H](CO)NC(=O)c1cc(-c2ccc(Cl)c(Cl)c2)nn(-c2cccc(F)c2)c1=O` [Example 300, 6-(3,4-Dichlorophenyl)-2-(3-fluorophenyl)-N-[(2S)-1-hydroxypropan-2-yl]-3-oxo-2,3-dihydropyridazine-4-carboxamide], the Emax in test [1] came to 122%. Further, the IC50 in test [2] was 1.07e-07 M; on AHR [3] it was 1.19e-07 M; against AHR [4] (setting [6]) it was above 2e-05 M.

The term IC50 denotes the midpoint of a concentration-inhibition curve.
